pKd: −log10 of the molar value. Starred links: 1 amine or outer side, 2 acyl side, 3 side chain; linkers in the order of their positions; H or OH if unused. Positions of bridges follow the written chain, without caps; N, C: chain ends. Non-standard residues stand in square brackets, D forms with d. Residues, ends and D or L forms follow the SMILES beside them. *: point of attachment. Ala(1-CH2CO2H-4-piperidyl) = N[C@@H](CC1CCN(CC(=O)O)CC1)C(=O)O; Ala(piperidin-4-yl) = O=C([C@H](CC1CCN([*:3])CC1)N[*:1])[*:2]; DOTA = O=C(O)CN1CCN(CC(=O)O)CCN(CC(=O)*)CCN(CC(=O)O)CC1; X8 = O=C([C@H](C[C@H]1CC[C@@H](O)CC1)N[*:1])[*:2]; Trp(5-F) = N[C@@H](Cc1c[nH]c2ccc(F)cc12)C(=O)O; Phe(3-Cl) = N[C@@H](Cc1cccc(Cl)c1)C(=O)O; Ala(4-THP) = N[C@@H](CC1CCOCC1)C(=O)O; Val(3-OH) = CC(C)(O)[C@H](N)C(=O)O; mTyr = N[C@@H](Cc1cccc(O)c1)C(=O)O; Tle = CC(C)(C)[C@H](N)C(=O)O; hLeu = CC(C)CC[C@H](N)C(=O)O
Target: T1, human 4lg B7-H3 (Homo sapiens, UniProt Q5ZPR3)
T1 sequence (Q5ZPR3 29-534): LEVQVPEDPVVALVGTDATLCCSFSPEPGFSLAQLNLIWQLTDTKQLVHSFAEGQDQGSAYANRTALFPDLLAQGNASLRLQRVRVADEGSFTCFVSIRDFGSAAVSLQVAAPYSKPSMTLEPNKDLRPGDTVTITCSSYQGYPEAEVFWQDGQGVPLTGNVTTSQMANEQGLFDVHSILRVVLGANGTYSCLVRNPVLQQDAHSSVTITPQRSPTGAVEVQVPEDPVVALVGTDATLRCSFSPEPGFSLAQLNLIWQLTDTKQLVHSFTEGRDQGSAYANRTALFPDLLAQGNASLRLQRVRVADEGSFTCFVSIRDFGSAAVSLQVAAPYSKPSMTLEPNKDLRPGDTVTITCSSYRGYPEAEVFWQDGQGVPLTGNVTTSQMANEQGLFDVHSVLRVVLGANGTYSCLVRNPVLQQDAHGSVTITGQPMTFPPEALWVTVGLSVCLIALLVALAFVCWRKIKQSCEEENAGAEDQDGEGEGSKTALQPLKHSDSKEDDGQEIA
Assay: Affinity determination by surface plasmon resonance (SPR) to 4Ig B7-H3
Details: SPR KD—37° C., 4Ig B7-H3; 37° C. flow cell temperature

CC(=O)N[C@@H](CCC(C)C)C(=O)N[C@@H](Cc1ccc(O)cc1)C(=O)N[C@H]1CSSC[C@@H](C(=O)N[C@@H](Cc2c[nH]c3ccc(F)cc23)C(=O)N[C@@H](Cc2ccccc2)C(=O)N[C@H](C(=O)N[C@H](CO)C(N)=O)C(C)(C)O)NC(=O)[C@H](Cc2ccc(O)cc2)NC(=O)[C@H](C(C)C)NC(=O)[C@H](CC(=O)O)NC(=O)[C@H](CC2CCN(CC(=O)O)CC2)NC(=O)[C@H](CCCCNC(=O)CN2CCN(CC(=O)O)CCN(CC(=O)O)CCN(CC(=O)O)CC2)NC(=O)CNC(=O)[C@H](C(C)(C)C)NC1=O [compound 420, Ac-hLeu-Y-C-Tbg-G-Lys(DOTA)-Pip(CH2COOH)Ala-D-V-Y-C-5FW-F-hydroxyVal-dSer-CONH2] (Ac-[hLeu]YC[Tle]GK(DOTA)[Ala(1-CH2CO2H-4-piperidyl)]DVYC[Trp(5-F)]F[Val(3-OH)][dS]-NH2; disulfide 3-11) and CC(=O)N[C@@H](CCC(C)C)C(=O)N[C@@H](Cc1ccc(O)cc1)C(=O)N[C@H]1CSSC[C@@H](C(=O)N[C@@H](Cc2c[nH]c3ccc(F)cc23)C(=O)N[C@@H](Cc2ccccc2)C(=O)N[C@H](C(=O)N[C@H](CCC(=O)O)C(N)=O)C(C)(C)O)NC(=O)[C@H](Cc2ccc(O)cc2)NC(=O)[C@H](C(C)C)NC(=O)[C@H](CC(=O)O)NC(=O)[C@H](CC2CCN(CC(=O)O)CC2)NC(=O)[C@H](CCCCNC(=O)CN2CCN(CC(=O)O)CCN(CC(=O)O)CCN(CC(=O)O)CC2)NC(=O)CNC(=O)[C@H](C(C)(C)C)NC1=O [compound 421, Ac-hLeu-Y-C-Tbg-G-Lys(DOTA)-Pip(CH2COOH)Ala-D-V-Y-C-5FW-F-hydroxyVal-dGlu-CONH2] (Ac-[hLeu]YC[Tle]GK(DOTA)[Ala(1-CH2CO2H-4-piperidyl)]DVYC[Trp(5-F)]F[Val(3-OH)][dE]-NH2; disulfide 3-11) fall in the same range of pKd: 8.00 to 9.00 for the first, 8.00 to 9.00 for the second.

CC(=O)N[C@@H](CCC(C)C)C(=O)N[C@@H](Cc1ccc(O)cc1)C(=O)N[C@H]1CSSC[C@@H](C(=O)N[C@@H](Cc2c[nH]c3ccc(F)cc23)C(=O)N[C@@H](Cc2ccccc2)C(=O)N[C@H](C(=O)N[C@H](CO)C(N)=O)C(C)(C)O)NC(=O)[C@H](Cc2ccc(O)cc2)NC(=O)[C@H](C(C)C)NC(=O)[C@H](CC(=O)O)NC(=O)[C@H](CC2CCOCC2)NC(=O)[C@H](CCCCNC(=O)CN2CCN(CC(=O)O)CCN(CC(=O)O)CCN(CC(=O)O)CC2)NC(=O)CNC(=O)[C@H](C(C)(C)C)NC1=O [compound 422, Ac-hLeu-Y-C-Tbg-G-Lys(DOTA)-ThpA-D-V-Y-C-5FW-F-hydroxyVal-dSer-CONH2] (Ac-[hLeu]YC[Tle]GK(DOTA)[Ala(4-THP)]DVYC[Trp(5-F)]F[Val(3-OH)][dS]-NH2; disulfide 3-11) and CC(=O)N[C@@H](CCC(C)C)C(=O)N[C@@H](Cc1ccc(O)cc1)C(=O)N[C@H]1CSSC[C@@H](C(=O)N[C@@H](Cc2c[nH]c3ccc(F)cc23)C(=O)N[C@@H](Cc2ccccc2)C(=O)N[C@H](C(=O)N[C@H](CCC(=O)O)C(N)=O)C(C)(C)O)NC(=O)[C@H](Cc2ccc(O)cc2)NC(=O)[C@H](C(C)C)NC(=O)[C@H](CC(=O)O)NC(=O)[C@H](CC2CCOCC2)NC(=O)[C@H](CCCCNC(=O)CN2CCN(CC(=O)O)CCN(CC(=O)O)CCN(CC(=O)O)CC2)NC(=O)CNC(=O)[C@H](C(C)(C)C)NC1=O [compound 423, Ac-hLeu-Y-C-Tbg-G-Lys(DOTA)-ThpA-D-V-Y-C-5FW-F-hydroxyVal-dGlu-CONH2] (Ac-[hLeu]YC[Tle]GK(DOTA)[Ala(4-THP)]DVYC[Trp(5-F)]F[Val(3-OH)][dE]-NH2; disulfide 3-11) fall in the same range of pKd: 8.00 to 9.00 for the first, 8.00 to 9.00 for the second.

CC(=O)N[C@@H](CCC(C)C)C(=O)N[C@@H](Cc1ccc(O)cc1)C(=O)N[C@H]1CSSC[C@@H](C(=O)N[C@@H](Cc2c[nH]c3ccc(F)cc23)C(=O)N[C@@H](Cc2ccccc2)C(=O)N[C@H](C(=O)N[C@H](CCC(=O)O)C(N)=O)C(C)(C)O)NC(=O)[C@H](Cc2ccc(O)cc2)NC(=O)[C@H](C(C)C)NC(=O)[C@H](CC(=O)O)NC(=O)[C@H](C[C@H]2CC[C@@H](O)CC2)NC(=O)[C@H](CCCCNC(=O)CN2CCN(CC(=O)O)CCN(CC(=O)O)CCN(CC(=O)O)CC2)NC(=O)CNC(=O)[C@H](C(C)(C)C)NC1=O [compound 424, Ac-hLeu-Y-C-Tbg-G-Lys(DOTA)-4OHCha(pk1)-D-V-Y-C-5FW-F-hydroxyVal-dGlu-CONH2] (Ac-[hLeu]YC[Tle]GK(DOTA)[X8]DVYC[Trp(5-F)]F[Val(3-OH)][dE]-NH2; disulfide 3-11) and CC(=O)N[C@@H](CCC(C)C)C(=O)N[C@@H](Cc1ccc(O)cc1)C(=O)N[C@H]1CSSC[C@@H](C(=O)N[C@@H](Cc2c[nH]c3ccc(F)cc23)C(=O)N[C@@H](Cc2ccccc2)C(=O)N[C@H](C(=O)N[C@H](CCC(=O)O)C(N)=O)C(C)(C)O)CC(=O)[C@H](Cc2ccc(O)cc2)NC(=O)[C@H](C(C)C)NC(=O)[C@H](CC(=O)O)NC(=O)[C@H](C[C@H]2CC[C@H](O)CC2)NC(=O)[C@H](CCCCNC(=O)CN2CCN(CC(=O)O)CCN(CC(=O)O)CCN(CC(=O)O)CC2)NC(=O)CNC(=O)[C@H](C(C)(C)C)NC1=O [compound 425, Ac-hLeu-Y-C-Tbg-G-Lys(DOTA)-4OHCha(pk2)-D-V-Y-C-5FW-F-hydroxyVal-dGlu-CONH2] fall in the same range of pKd: 8.00 to 9.00 for the first, 8.00 to 9.00 for the second.

First: CC(=O)N[C@@H](CCC(C)C)C(=O)N[C@@H](Cc1ccc(O)cc1)C(=O)N[C@H]1CSSC[C@@H](C(=O)N[C@@H](Cc2c[nH]c3ccc(F)cc23)C(=O)N[C@@H](Cc2cccc(Cl)c2)C(=O)N[C@H](C(=O)N[C@H](CCCCNC(=O)CN2CCN(CC(=O)O)CCN(CC(=O)O)CCN(CC(=O)O)CC2)C(=O)O)C(C)(C)O)NC(=O)[C@H](Cc2ccc(O)cc2)NC(=O)[C@H](C(C)C)NC(=O)[C@H](CC(=O)O)NC(=O)[C@H](CC2CCOCC2)NC(=O)[C@H](CC2CCNCC2)NC(=O)CNC(=O)[C@H](C(C)(C)C)NC1=O [compound 430, Ac-hLeu-Y-C-Tbg-G-PipAla-ThpA-D-V-Y-C-5FW-3CIPhe-hydroxyVal-dLys(DOTA)-COOH] (Ac-[hLeu]YC[Tle]G[Ala(piperidin-4-yl)][Ala(4-THP)]DVYC[Trp(5-F)][Phe(3-Cl)][Val(3-OH)][dK](DOTA)-OH; disulfide 3-11)
Second: CC(=O)N[C@@H](CCC(C)C)C(=O)N[C@@H](Cc1ccc(O)cc1)C(=O)N[C@H]1CSSC[C@@H](C(=O)N[C@@H](Cc2c[nH]c3ccc(F)cc23)C(=O)N[C@@H](Cc2cccc(O)c2)C(=O)N[C@H](C(=O)N[C@H](CCCCNC(=O)CN2CCN(CC(=O)O)CCN(CC(=O)O)CCN(CC(=O)O)CC2)C(=O)O)C(C)(C)O)NC(=O)[C@H](Cc2ccc(O)cc2)NC(=O)[C@H](C(C)C)NC(=O)[C@H](CC(=O)O)NC(=O)[C@H](CC2CCOCC2)NC(=O)[C@H](CC2CCNCC2)NC(=O)CNC(=O)[C@H](C(C)(C)C)NC1=O [compound 431, Ac-hLeu-Y-C-Tbg-G-PipAla-ThpA-D-V-Y-C-5FW-3OHPhe-hydroxyVal-dLys(DOTA)-COOH] (Ac-[hLeu]YC[Tle]G[Ala(piperidin-4-yl)][Ala(4-THP)]DVYC[Trp(5-F)][mTyr][Val(3-OH)][dK](DOTA)-OH; disulfide 3-11)
The pKd of the first is higher: over 9.00 for the first, 8.00 to 9.00 for the second. The first binds more tightly here.

Source: patent US20250296959A1, “B7-H3 TARGETING PEPTIDES AND CONSTRUCTS THEREOF” (Mariana Oncology Inc., priority 2024, published 2025)
